Measurements published in patent publication US20060069132A1, “Azolecarboxamide herbicides” (priority 2004, published 2006).

Experiments:
barnyardgrass [1] = experiment: Test A pre-/postemergence herbicide test; type: in vivo, Echinochloa crus-galli
Summary of the method: (§1)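 Visual injury rating on a 0–100 scale (0 no effect, 100 complete control) versus untreated controls, about ten days after treatment in greenhouse. Pre: directed soil spray onto seeded sandy loam. Post: spray to runoff on plants 2–10 cm tall at one- to two-leaf stage.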

giant foxtail [2] = experiment: Test B pre-/postemergence herbicide test; type: in vivo, Setaria faberi; settings: for Plant response rating, Foxtail, Giant: preemergence; for Foxtail, Giant plant response rating: postemergence, visual rating, scale 0 (no effect) to 100 (complete control)
Summary of the method: (§2)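 Herbicidal effect was judged by eye on a 0–100 scale after plants stood 13 to 15 days in the greenhouse following pre- or postemergence treatment with surfactant-containing formulations.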

blackgrass = experiment: Test B postemergence herbicide test; type: in vivo, Alopecurus myosuroides; settings: postemergence, visual rating, scale 0 (no effect) to 100 (complete control)
Summary of the method: (§3)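 Formulated test chemicals went onto postemergence plants measuring 2 to 18 cm, at one to four leaves. For the paddy assay, species had reached two leaves. Scoring took place 13–15 days later by eye, relative to untreated plants, using 0 for no effect up to 100 for full control.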

large crabgrass [3] = experiment: Test A pre-/postemergence herbicide test; type: in vivo, Digitaria sanguinalis
Summary of the method: as §1

cocklebur = experiment: Test B pre-/postemergence herbicide test; type: in vivo, Xanthium strumarium; settings: for Plant response rating, Cocklebur: preemergence; for Cocklebur plant response rating: postemergence, visual rating, scale 0 (no effect) to 100 (complete control)
Summary of the method: (§4)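 Plants compared with untreated controls 13–15 days post-treatment and given a visual 0–100 injury score. Applications: preemergence to seeds; postemergence at 1- to 4-leaf (2–18 cm); paddy species flooded, 2-leaf stage. Vehicle non-phytotoxic, surfactant included.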

lambsquarters = experiment: Test B pre-/postemergence herbicide test; type: in vivo, Chenopodium album; settings: for Plant response rating, Lambsquarters: preemergence; for Lambsquarters plant response rating: postemergence, visual rating, scale 0 (no effect) to 100 (complete control)
Summary of the method: as §2

velvetleaf [4] = experiment: Test B pre-/postemergence herbicide test; type: in vivo, Abutilon theophrasti; settings: for Plant response rating, Velvetleaf: preemergence; for Velvetleaf plant response rating: postemergence, visual rating, scale 0 (no effect) to 100 (complete control)
Summary of the method: as §2

morningglory [5] = experiment: Test B pre-/postemergence herbicide test; type: in vivo, Ipomoea coccinea; settings: for Morningglory plant response rating: postemergence, visual rating, scale 0 (no effect) to 100 (complete control)
Summary of the method: as §4

pigweed = experiment: Test B pre-/postemergence herbicide test; type: in vivo, Amaranthus retroflexus; settings: for Plant response rating, Pigweed: preemergence; for Pigweed plant response rating: postemergence, visual rating, scale 0 (no effect) to 100 (complete control)
Summary of the method: as §2

wheat = experiment: Test B postemergence herbicide test; type: in vivo, Triticum aestivum; design: key to Wheat plant response rating: 0 = no effect, 100 = complete control; settings: postemergence, visual rating, scale 0 (no effect) to 100 (complete control)
Summary of the method: (§5)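 Treated at 2-leaf (paddy) or 1–4-leaf, 2–18 cm (postemergence); greenhouse 13–15 d; visual score vs control, 0 none to 100 complete control; dash = not tested.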

ducksalad = experiment: Test B flooded paddy test; type: in vivo, Heteranthera limosa; settings: 1000 g ai/ha, visual rating, scale 0 to 100 (0 no effect, 100 complete control), 13 to 15 days
Summary of the method: as §3

barnyardgrass [6] = experiment: Test B flooded paddy test; type: in vivo, Echinochloa crus-galli; settings: 1000 g ai/ha, visual rating, scale 0 to 100 (0 no effect, 100 complete control), 13 to 15 days
Summary of the method: as §3

barnyardgrass [7] = experiment: Test B pre-/postemergence herbicide test; type: in vivo, Echinochloa crus-galli; settings: for Plant response rating, Barnyardgrass: preemergence; for Barnyardgrass plant response rating: postemergence, visual rating, scale 0 (no effect) to 100 (complete control)
Summary of the method: as §4

wild oat = experiment: Test B postemergence herbicide test; type: in vivo, Avena fatua; settings: postemergence, visual rating, scale 0 (no effect) to 100 (complete control)
Summary of the method: as §5

[8] = system: small flower umbrella sedge; experiment: Test B flooded paddy test; type: in vivo, Cyperus difformis; settings: 1000 g ai/ha, visual rating, scale 0 to 100 (0 no effect, 100 complete control), 13 to 15 days
Summary of the method: as §3

giant foxtail [9] = experiment: Test A pre-/postemergence herbicide test; type: in vivo, Setaria faberi
Summary of the method: as §1

large crabgrass [10] = experiment: Test B pre-/postemergence herbicide test; type: in vivo, Digitaria sanguinalis; settings: for Plant response rating, Crabgrass, Large: preemergence; for Crabgrass, Large plant response rating: postemergence, visual rating, scale 0 (no effect) to 100 (complete control)
Summary of the method: as §2

rice [11] = experiment: Test B pre-/postemergence herbicide test; type: in vivo, Oryza sativa; settings: 500 g ai/ha; visual rating 0-100, 0 no effect, 100 complete control; preemergence
Summary of the method: as §2

Surinam grass = experiment: Test B pre-/postemergence herbicide test; type: in vivo, Urochloa decumbens; settings: for Plant response rating, Surinam Grass: preemergence; for Surinam Grass plant response rating: postemergence, visual rating, scale 0 (no effect) to 100 (complete control)
Summary of the method: as §2

velvetleaf [12] = experiment: Test A pre-/postemergence herbicide test; type: in vivo, Abutilon theophrasti
Summary of the method: as §1

morningglory [13] = experiment: Test A pre-/postemergence herbicide test; type: in vivo, Ipomoea spp.
Summary of the method: as §1

redroot pigweed = experiment: Test A pre-/postemergence herbicide test; type: in vivo, Amaranthus retroflexus
Summary of the method: as §1

rice [14] = experiment: Test B flooded paddy test; type: in vivo, Oryza sativa; settings: 1000 g ai/ha, visual rating, scale 0 to 100 (0 no effect, 100 complete control), 13 to 15 days
Summary of the method: as §5

corn = experiment: Test B pre-/postemergence herbicide test; type: in vivo, Zea mays; settings: for Plant response rating, Corn: preemergence; for Corn plant response rating: postemergence, visual rating, scale 0 (no effect) to 100 (complete control)
Summary of the method: as §2

[15] = Postemergence, 250 g ai/ha, 0 to 100 scale, 0 no effect, 100 complete control
[16] = Postemergence, 1000 g ai/ha, 0 to 100 scale, 0 no effect, 100 complete control
[17] = Preemergence, 1000 g ai/ha, visual rating, 0 to 100 scale (0 no effect, 100 complete control)
[18] = preemergence, 250 g ai/ha, visual injury, 0 to 100 scale (0 no effect, 100 complete control)
[19] = 500 g ai/ha, visual rating 0-100, 0 no effect, 100 complete control
[20] = 125 g ai/ha, 0 to 100 scale, 0 is no effect, 100 is complete control

CCn1nc(C(C)(C)C)cc1C(=O)Nc1cccc([S+]([O-])C(F)(F)F)c1 (centres unmarked) [Compound 135]
Barnyardgrass plant response rating (barnyardgrass [1]; [15]): 30
Plant response rating, Barnyardgrass (barnyardgrass [1]; [16]): 50
Barnyardgrass plant response rating (barnyardgrass [1]; [17]): 65
Barnyardgrass plant response rating (barnyardgrass [1]; [18]): 35
Plant response rating, Foxtail, Giant (giant foxtail [2]; [19]): 20
Foxtail, Giant plant response rating (giant foxtail [2]; 125 g ai/ha): 30
Foxtail, Giant plant response rating (giant foxtail [2]; 500 g ai/ha): 40
Plant response rating, Foxtail, Giant (giant foxtail [2]; [20]): 10
Blackgrass plant response rating (blackgrass; 125 g ai/ha): 0
Blackgrass plant response rating (blackgrass; 500 g ai/ha): 0
Crabgrass, Large plant response rating (large crabgrass [3]; [15]): 20
Plant response rating, Crabgrass, Large (large crabgrass [3]; [16]): 30
Crabgrass, Large plant response rating (large crabgrass [3]; [17]): 90
Crabgrass, Large plant response rating (large crabgrass [3]; [18]): 40
Plant response rating, Cocklebur (cocklebur; [19]): 0
Cocklebur plant response rating (cocklebur; 125 g ai/ha): 40
Cocklebur plant response rating (cocklebur; 500 g ai/ha): 90
Plant response rating, Cocklebur (cocklebur; [20]): 0
Plant response rating, Lambsquarters (lambsquarters; [19]): 100
Lambsquarters plant response rating (lambsquarters; 125 g ai/ha): 70
Lambsquarters plant response rating (lambsquarters; 500 g ai/ha): 80
Plant response rating, Lambsquarters (lambsquarters; [20]): 30
Plant response rating, Velvetleaf (velvetleaf [4]; [19]): 50
Velvetleaf plant response rating (velvetleaf [4]; 125 g ai/ha): 20
Velvetleaf plant response rating (velvetleaf [4]; 500 g ai/ha): 30
Plant response rating, Velvetleaf (velvetleaf [4]; [20]): 30
Morningglory plant response rating (morningglory [5]; 125 g ai/ha): 30
Morningglory plant response rating (morningglory [5]; 500 g ai/ha): 50
Plant response rating, Morningglory (morningglory [5]; preemergence, 125 g ai/ha, 0 to 100 scale, 0 is no effect, 100 is complete control): 10
Plant response rating, Pigweed (pigweed; [19]): 100
Pigweed plant response rating (pigweed; 125 g ai/ha): 80
Pigweed plant response rating (pigweed; 500 g ai/ha): 90
Plant response rating, Pigweed (pigweed; [20]): 60
Wheat plant response rating (wheat; 125 g ai/ha): 20
Wheat plant response rating (wheat; 500 g ai/ha): 20
Ducksalad plant response rating (ducksalad): 80
Barnyardgrass plant response rating (barnyardgrass [6]): 60
Plant response rating, Barnyardgrass (barnyardgrass [7]; [19]): 50
Barnyardgrass plant response rating (barnyardgrass [7]; 125 g ai/ha): 20
Barnyardgrass plant response rating (barnyardgrass [7]; 500 g ai/ha): 40
Plant response rating, Barnyardgrass (barnyardgrass [7]; [20]): 40
Oat, Wild plant response rating (wild oat; 125 g ai/ha): 20
Oat, Wild plant response rating (wild oat; 500 g ai/ha): 20
Sedge, Umbrella plant response rating [8]: 70
Foxtail, Giant plant response rating (giant foxtail [9]; [15]): 20
Plant response rating, Foxtail, Giant (giant foxtail [9]; [16]): 30
Foxtail, Giant plant response rating (giant foxtail [9]; [17]): 50
Foxtail, Giant plant response rating (giant foxtail [9]; [18]): 10
Plant response rating, Crabgrass, Large (large crabgrass [10]; [19]): 90
Crabgrass, Large plant response rating (large crabgrass [10]; 125 g ai/ha): 20
Crabgrass, Large plant response rating (large crabgrass [10]; 500 g ai/ha): 30
Plant response rating, Crabgrass, Large (large crabgrass [10]; [20]): 50
Plant response rating, Rice (rice [11]): 30
Plant response rating, Surinam Grass (Surinam grass; [19]): 30
Surinam Grass plant response rating (Surinam grass; 125 g ai/ha): 30
Surinam Grass plant response rating (Surinam grass; 500 g ai/ha): 40
Plant response rating, Surinam Grass (Surinam grass; [20]): 10
Velvetleaf plant response rating (velvetleaf [12]; [15]): 15
Plant response rating, Velvetleaf (velvetleaf [12]; [16]): 25
Velvetleaf plant response rating (velvetleaf [12]; [17]): 50
Velvetleaf plant response rating (velvetleaf [12]; [18]): 5
Morningglory plant response rating (morningglory [13]; [15]): 10
Plant response rating, Morningglory (morningglory [13]; [16]): 10
Morningglory plant response rating (morningglory [13]; [17]): 25
Morningglory plant response rating (morningglory [13]; [18]): 0
Pigweed plant response rating (redroot pigweed; [15]): 80
Plant response rating, Pigweed (redroot pigweed; [16]): 85
Pigweed plant response rating (redroot pigweed; [17]): 85
Pigweed plant response rating (redroot pigweed; [18]): 55
Rice plant response rating (rice [14]): 60
Plant response rating, Corn (corn; [19]): 0
Corn plant response rating (corn; 125 g ai/ha): 20
Corn plant response rating (corn; 500 g ai/ha): 30
Plant response rating, Corn (corn; [20]): 0
